Reference: patent publication US20020137929A1, “1 - (3-heterocyclylphenyl) isothiourea, -isourea, -guanidine and -amidine herbicidal agents” (Intellectual Property Department, BASF Aktiengesellschaft, priority 1998, published 2002)

What was measured:
[1] = tested on: AMBEL (Ragweed, Common); experiment: Postemergence herbicidal evaluation; format: in vivo, Ambrosia artemisifolia; settings: postemergence
Summary of the method: (§1)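 Two-week-old seedlings sprayed with compound in 50/50 acetone/water plus 0.5% TWEEN 20, at about 0.0156 to 0.500 kg/ha, nozzle at 40 psi. Kept in greenhouse; rated visually 4-5 weeks after treatment on a 0-9 scale versus control, repeat tests averaged.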

[2] = tested on: IPOHE (Morningglory, Ivyleaf); experiment: Postemergence herbicidal evaluation; format: in vivo, Ipomoea hederacea; settings: postemergence
Summary of the method: as §1

[3] = tested on: GLXMAW (Soybean, Williams); experiment: Postemergence herbicidal evaluation; format: in vivo, Glycine max, (L.) Merr. cv Williams; settings: postemergence
Summary of the method: as §1

[4] = tested on: ZEAMX (Corn, Field); experiment: Postemergence herbicidal evaluation; format: in vivo, Zea mays; settings: postemergence
Summary of the method: as §1

[5] = tested on: ABUTH (Velvetleaf); experiment: Preemergence herbicidal evaluation; format: in vivo, Abutilon theophrasti; settings: rated 4-5 weeks after treatment
Summary of the method: (§2)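 Seeds were mixed with potting soil and planted on about one inch of soil, then sprayed with test compound in aqueous acetone at about 0.0156 to 0.500 kg per hectare. Plants grew under standard greenhouse care and were visually rated 0-9 against untreated controls 4-5 weeks post-treatment.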

[6] = tested on: AMBEL (Ragweed, Common); experiment: Preemergence herbicidal evaluation; format: in vivo, Ambrosia artemisifolia; settings: rated 4-5 weeks after treatment
Summary of the method: as §2

[7] = tested on: CASOB (Sicklepod); experiment: Preemergence herbicidal evaluation; format: in vivo, Cassia obtusifolia; settings: rated 4-5 weeks after treatment
Summary of the method: as §2

[8] = tested on: GALAP (Galium); experiment: Preemergence herbicidal evaluation; format: in vivo, Galium aparine; settings: rated 4-5 weeks after treatment
Summary of the method: as §2

[9] = tested on: ECHCG (Barnyardgrass); experiment: Preemergence herbicidal evaluation; format: in vivo, Echinochloa crus-galli; settings: rated 4-5 weeks after treatment
Summary of the method: as §2

[10] = tested on: SETVI (Foxtail, Green); experiment: Preemergence herbicidal evaluation; format: in vivo, Setaria viridis; settings: rated 4-5 weeks after treatment
Summary of the method: as §2

[11] = tested on: GLXMAW (Soybean, Williams); experiment: Preemergence herbicidal evaluation; format: in vivo, Glycine max, (L.) Merr. cv Williams; settings: rated 4-5 weeks after treatment
Summary of the method: as §2

[12] = tested on: CYPSE (Flatsedge); experiment: Preemergence weed control under flooded paddy conditions; format: in vivo, Cyperus serotinus; settings: 0.2500 kg/ha, rated 3-4 weeks after treatment
Summary of the method: (§3)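 Visual injury scored 0-9 against control three to four weeks post-treatment, greenhouse-grown. Application: acetone/water (50/50) solutions dosed directly into flood water (1.5-3 cm over silt loam, planted top 0.5 cm), roughly 0.0313 to 0.500 kg/ha active ingredient.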

[13] = tested on: SAGPY (Arrowhead (Pygmaea)); experiment: as above; format: in vivo, Sagittaria pygmaea; settings: rated 3-4 weeks after treatment
Summary of the method: as §3

## Cn1c(C(F)(F)F)cc(=O)n(-c2cc(N=C3SCC(=O)N3Cc3ccco3)c(Cl)cc2F)c1=O [Compound 122, 3-{4-Chloro-2-fluoro-5-[(3-furfuryl-4-oxo-2-thiazolidinylidene)amino]phenyl}-1-methyl-6-(trifluoromethyl)-2,4(1H,3H)-pyrimidinedione]
[1]; rate 0.0156 kg/ha
  herbicidal rating AMBEL: 7.0
[1]; rate 0.0313 kg/ha
  herbicidal rating AMBEL: 9.0
[1]; rate 0.0625 kg/ha
  herbicidal rating AMBEL: 9.0
[1]; rate 0.1250 kg/ha
  herbicidal rating AMBEL: 9.0
[2]; rate 0.0156 kg/ha
  herbicidal rating IPOHE: 9.0
[2]; rate 0.0313 kg/ha
  herbicidal rating IPOHE: 9.0
[2]; rate 0.0625 kg/ha
  herbicidal rating IPOHE: 9.0
[2]; rate 0.1250 kg/ha
  herbicidal rating IPOHE: 9.0
[3]; rate 0.0156 kg/ha
  herbicidal rating GLXMAW: 5.5
[3]; rate 0.0313 kg/ha
  herbicidal rating GLXMAW: 6.5
[3]; rate 0.0625 kg/ha
  herbicidal rating GLXMAW: 6.5
[3]; rate 0.1250 kg/ha
  herbicidal rating GLXMAW: 6.5
[4]; rate 0.0156 kg/ha
  herbicidal rating ZEAMX: 4.5
[4]; rate 0.0313 kg/ha
  herbicidal rating ZEAMX: 7.0
[4]; rate 0.0625 kg/ha
  herbicidal rating ZEAMX: 7.0
[4]; rate 0.1250 kg/ha
  herbicidal rating ZEAMX: 7.0
[5]; rate 0.0156 kg/ha
  Preemergence herbicidal rating ABUTH: 0.0
[5]; rate 0.0313 kg/ha
  Preemergence herbicidal rating ABUTH: 0.0
[5]; rate 0.0625 kg/ha
  Preemergence herbicidal rating ABUTH: 4.0
[5]; rate 0.1250 kg/ha
  Preemergence herbicidal rating ABUTH: 9.0
[5]; rate 0.2500 kg/ha
  Preemergence herbicidal rating ABUTH: 9.0
[5]; rate 0.5000 kg/ha
  Preemergence herbicidal rating ABUTH: 9.0
[6]; rate 0.0156 kg/ha
  Preemergence herbicidal rating AMBEL: 0.0
[6]; rate 0.0313 kg/ha
  Preemergence herbicidal rating AMBEL: 0.0
[6]; rate 0.0625 kg/ha
  Preemergence herbicidal rating AMBEL: 0.0
[6]; rate 0.1250 kg/ha
  Preemergence herbicidal rating AMBEL: 2.0
[6]; rate 0.2500 kg/ha
  Preemergence herbicidal rating AMBEL: 2.0
[6]; rate 0.5000 kg/ha
  Preemergence herbicidal rating AMBEL: 3.0
[7]; rate 0.0156 kg/ha
  Preemergence herbicidal rating CASOB: 0.0
[7]; rate 0.0313 kg/ha
  Preemergence herbicidal rating CASOB: 0.0
[7]; rate 0.0625 kg/ha
  Preemergence herbicidal rating CASOB: 0.0
[7]; rate 0.1250 kg/ha
  Preemergence herbicidal rating CASOB: 0.0
[7]; rate 0.2500 kg/ha
  Preemergence herbicidal rating CASOB: 0.0
[7]; rate 0.5000 kg/ha
  Preemergence herbicidal rating CASOB: 3.0
[8]; rate 0.0156 kg/ha
  Preemergence herbicidal rating GALAP: 3.0
[8]; rate 0.0313 kg/ha
  Preemergence herbicidal rating GALAP: 2.0
[8]; rate 0.0625 kg/ha
  Preemergence herbicidal rating GALAP: 3.0
[8]; rate 0.1250 kg/ha
  Preemergence herbicidal rating GALAP: 4.0
[8]; rate 0.2500 kg/ha
  Preemergence herbicidal rating GALAP: 4.0
[8]; rate 0.5000 kg/ha
  Preemergence herbicidal rating GALAP: 6.0
[9]; rate 0.0156 kg/ha
  Preemergence herbicidal rating ECHCG: 0.0
[9]; rate 0.0313 kg/ha
  Preemergence herbicidal rating ECHCG: 0.0
[9]; rate 0.0625 kg/ha
  Preemergence herbicidal rating ECHCG: 0.0
[9]; rate 0.1250 kg/ha
  Preemergence herbicidal rating ECHCG: 0.0
[9]; rate 0.2500 kg/ha
  Preemergence herbicidal rating ECHCG: 0.0
[9]; rate 0.5000 kg/ha
  Preemergence herbicidal rating ECHCG: 1.0
[10]; rate 0.0156 kg/ha
  Preemergence herbicidal rating SETVI: 0.0
[10]; rate 0.0313 kg/ha
  Preemergence herbicidal rating SETVI: 0.0
[10]; rate 0.0625 kg/ha
  Preemergence herbicidal rating SETVI: 0.0
[10]; rate 0.1250 kg/ha
  Preemergence herbicidal rating SETVI: 1.0
[10]; rate 0.2500 kg/ha
  Preemergence herbicidal rating SETVI: 1.0
[10]; rate 0.5000 kg/ha
  Preemergence herbicidal rating SETVI: 9.0
[11]; rate 0.0156 kg/ha
  Preemergence herbicidal rating GLXMAW: 0.0
[11]; rate 0.0313 kg/ha
  Preemergence herbicidal rating GLXMAW: 0.0
[11]; rate 0.0625 kg/ha
  Preemergence herbicidal rating GLXMAW: 1.0
[11]; rate 0.1250 kg/ha
  Preemergence herbicidal rating GLXMAW: 0.0
[11]; rate 0.2500 kg/ha
  Preemergence herbicidal rating GLXMAW: 0.0
[11]; rate 0.5000 kg/ha
  Preemergence herbicidal rating GLXMAW: 0.0
[12]
  herbicidal effect rating, CYPSE: 3.0
[13]; 0.0313 kg/ha
  herbicidal effect rating, SAGPY: 2.0
[13]; 0.0625 kg/ha
  herbicidal effect rating, SAGPY: 3.0
[13]; 0.1250 kg/ha
  herbicidal effect rating, SAGPY: 5.0
[13]; 0.2500 kg/ha
  herbicidal effect rating, SAGPY: 6.0
